In patent US20210078985A1, “COMPOUND, PREPARATION METHOD THEREFOR, AND USE THEREOF” (MEDSPRING INTERNATIONAL LIMITED, priority 2018, published 2021):
≈ marks a conversion by molar mass, not a printed value. Like-named read-outs stand apart in the source and are kept apart here.

Columns and labels:
[1] = Description: Solubility of compounds was determined according to the method established in the general instructions of Part II of Pharmacopoeia 2010 edition. […] The dissolution was observed within 30 minutes.
(§1) The dissolution was then observed within 30 minutes.
as §1

Caco-2 cells = assay: In vitro membrane permeability test (Caco-2 monolayer)
Description: Caco-2 cell model is a human colonic adenocarcinoma cell line having a structure and function similar to differentiated intestinal epithelial cells. It has microvilli and other structures, and contains enzyme system related to intestinal brush border epithelium.
The cryopreserved Caco-2 cells were thawed in 37° C. water bath. After resuscitation, the cells were added into DMEM medium containing 10% FBS, and cultured in an incubator with 37° C., 5% CO2 and 90% relative humidity. The culture medium was changed every other day. After 1-2 days of growth, the cells were digested with 0.25% trypsin-EDTA (0.2%) mixed digestive solution at 37° C. and passaged in a certain proportion. The cell generation used in the experiments was 40-60 passages.
When cells reached 80% confluency, they were digested and suspended in complete medium and seeded on Millicell plate at 1×10^6 cells·ml^−1. After that, the culture medium was changed once every 2 days and after 1 week, was changed once every 1 day. After 5 days of culture, the resistance value reaches plateau (>200 Ω·cm^2), which can be then used for membrane permeability experiment.
The compound was diluted to 5 μmol·L^−1 by HBSS. Before experiments, the culture medium in each well was discarded, washed twice with HBSS solution at 37° C., and then incubated in a 37° C. incubator. […] The emission wavelength was set at 430 nm and the excitation wavelength was set at 530 nm.
Before experiments, Millicell inoculated with cells was soaked in HBSS solution at 37° C. for an appropriate time period, and the Millicell was washed slightly to remove the attachment on the cell surface. The permeability from cavity surface to basal surface: 0.35 ml HBSS solution containing drug was added to the top side (AP) and 1.2 ml blank HBSS solution was added to the bottom side (BL). The Millicell was incubated while shaking at 50 r·min^−1 at 37° C., a 50 μL sample was taken in the lower layer at 0, 30, 90 and 120 min, and a same volume of blank HBSS solution as added back. 3 holes were repeated for each concentration. 50 μL internal standard solution and 350 μL ethyl acetate were added to the sample, which was shaken and mixed, centrifuged at 12000 rpm for 5 min. 300 μL of supernatant was taken out, dried by evaporation, and re-dissolved in 50 μL acetonitrile. 10 μL sample was taken out for testing. For the permeability from the base surface to the cavity surface, the drug was added to the bottom side (BL), and the blank HBSS solution was added to the top side (AP). The following steps are the same as the permeability test operation from the cavity surface to the base surface.
The apparent permeability coefficient (Papp) of drugs reflects the ability of drugs to pass through monolayer cells and the speed and degree of drug absorption. It can be calculated by the following formula: […]
Herein, ΔQ is the amount of drug penetration during the time period of Δt, A is the cell surface area, which is the area of supporting membrane (0.6 cm^2) in this model, and Co is the initial concentration. The unit of Papp is usually expressed in cm/h (cm·h^−1) or cm/s (cm·s^−1).
LC/MS was used for testing. The standard curve ([…]-10000 nM) was used to quantify the concentration of each sample.

[2] = biological target: T1, CHO membranes expressing CCR4 (Homo sapiens, UniProt P51679); assay: In vitro CCR4 antagonistic activity, competitive [35S]-GTPγS test; assay type: biochemical
T1 construct: expressed in transfected cells; host or cells: CHO cell membranes
T1 sequence (P51679 1-360): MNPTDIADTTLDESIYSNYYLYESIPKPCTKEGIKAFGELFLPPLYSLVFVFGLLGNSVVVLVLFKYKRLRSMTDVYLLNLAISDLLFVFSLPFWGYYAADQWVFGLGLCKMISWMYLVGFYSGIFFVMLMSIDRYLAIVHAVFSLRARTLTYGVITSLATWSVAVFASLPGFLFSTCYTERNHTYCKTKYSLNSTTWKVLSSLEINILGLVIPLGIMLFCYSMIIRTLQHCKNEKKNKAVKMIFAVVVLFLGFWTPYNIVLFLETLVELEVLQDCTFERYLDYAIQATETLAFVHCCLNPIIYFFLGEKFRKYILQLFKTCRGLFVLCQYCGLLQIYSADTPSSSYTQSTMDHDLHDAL
Description: The potency of antagonists was tested by a competitive test of [35S]-GTPγS. Briefly, CHO membranes expressing CCR4 were homogenized through a 23 G needle. These membranes were then attached to WGA-coated Leadseeker SPA beads in a testing buffer (20 mM HEPES, 10 mM MgCl2, 100 mM NaCl, 0.05% BSA, 40 ug/ml saponin, adjusted to pH 7.4 with KOH 5M) to produce 3 μg/well final […] (FAC) membrane and 250 μg/well FAC bead solution. After 60 minutes of pre-coupling on ice, GDP was added to obtain 4.4 uM FAC. Then [35S]-GTPS, which was prepared in the testing buffer, was added into the bead/membrane solution to thereby obtain 0.33 nM FAC. […] The suspension of beads/membranes/[35S]-GTPγS/agonist was distributed into a white Greiner polypropylene 384-pore plate (45 μL/well), which contained 0.5 μl of compound. The final testing solution (45.5 μL) was sealed, centrifuged and incubated at room temperature for 3-6 hours. Then, the plate was read with Viewlux and the luminescence was plotted as the percentage of the maximum inhibitory response induced by IC100 standard antagonist.

Compound | Solubility in water under 25° C. ± 2° C. [1] [mg/mL] | absorption classification from Papp (Caco-2 cells; Caco-2) | Papp (apparent permeability coefficient) (Caco-2 cells; human, Caco-2) | Solubility in water under 25° C. ± 2° C. ([1]; water, 25° C. ± 2° C., visual dissolution within 30 minutes) [mg/mL] | IC50, times higher than that of compound 6 ([2]; relative to compound 6, same experimental conditions) [times] | absorption classification from Papp (Caco-2 cells; Caco-2, Papp>2×10^−6 = good-absorption drug) | Papp (apparent permeability coefficient) (Caco-2 cells; Caco-2 monolayer, direction not given, sodium) | solubility, times higher than that of compound 6 [1] | IC50, times higher than that of compound 6 [2] [times] | permeability, times higher than compound 6 (Caco-2 cells; Caco-2)
COc1cccc2c1c(NS(=O)(=O)c1ccc(Cl)s1)nn2Cc1cccc(CNC(=O)C(C)(C)O)c1 [Compound 6, N-[(3-{[3-{[(5-chloro-2-thienyl)sulfonyl]amino}-4-(methoxy)-1H-indazole-1-yl]methyl}phenyl)methyl]-2-hydroxy-2-methylpropionamide, reference compound] | 0.02 (≈ 36.4 µM) | difficult-to-absorb compound | 0.13 ×10^−6 |  |  |  |  |  |  | 
COc1cccc2c1c(NS(=O)(=O)c1ccc(Cl)s1)nn2Cc1cccc(CNC(=O)C(C)(C)O)c1.[Na] [Compound of formula II, N-[(3-{[3-{[(5-chloro-2-thienyl)sulfonyl]amino}-4-(methoxy)-1H-indazole-1-yl]methyl}phenyl)methyl]-2-hydroxy-2-methylpropionamide sodium] |  |  |  | 500 | 6 | easy-to-absorb compounds | 68.82 ×10^−6 |  |  | 
COc1cccc2c1c(NS(=O)(=O)c1ccc(Cl)s1)nn2Cc1cccc(CNC(=O)C(C)(C)O)c1 [Compound of formula III, N-[(3-{[3-{[(5-chloro-2-thienyl)sulfonyl]amino}-4-(methoxy)-1H-indazole-1-yl]methyl}phenyl)methyl]-2-hydroxy-2-methylpropionamide potassium] | 40 | easy-to-absorb compounds |  |  |  |  |  | 2000-25000 times | 210 | 530-780 times
